Consider one compound from patent US20170135378A1, “COMPOSITION AND USE THEREOF” (DUPONT NUTRITION BIOSCIENCES APS, priority 2014, published 2017).

A short description of series [1]: Release testing of betaine leaching from shrimp feed pellets in artificial seawater. The class given is physicochemical. On the procedure: An aquafeed comprising the composition of the invention (or the composition itself) is placed in a rotating basket and immersed in 500 ml of artificial seawater (547.6 mM NaCl, 56.8 mM MgSO4.7H2O, 2.4 mM NaHCO3, adjusted to pH 8,2 with 1M NaOH), and held at 30° C. Aliquots of sample are withdrawn at selected time-points (1, 3, 5, 10, 15, 30, 45, 60 and 90 minutes). The volume of dissolution media is held constant through the re-addition of aliquots (30° C.) of fresh media to compensate. The aliquots are analysed by a suitable analytical technique (e.g. HPLC) in order to determine the concentration of the hydro-soluble component in the dissolution media.
An aquafeed sample (30 g) was placed in a rotating basket and immersed in 500 ml of artificial seawater (pH 8,2), held at 30° C. 5 ml aliquots of sample were withdrawn at selected time-points (1, 3, 5, 10, 15, 30, 45, 60 and 90 minutes). The volume of dissolution media was held constant (500 ml) through the re-addition of 5 ml aliquots of fresh media (30° C.). These samples were filtered on […], frozen and analysed by HPLC in Advanced Analysis.
Release curves (see FIGS. 1 to 3) show the amount of betaine leached as a percentage of weight of available net betaine (% w/w).

For series [2] the following is noted: pure form; water and lower alcohols; cited from earlier work.

As to `C[N+](C)(C)CC(=O)[O-]` [Betafin BT, trimethylglycine], the “proportion of available betaine leached over 90 minutes” value in series [1] (pellets with increased betaine content (c. 5 and 10 kg/T, FIGS. 2 and 3), artificial seawater pH 8,2, 30° C., 90 minutes) is at most 40%. Also, in series [1] (shrimp feed pellets c. 2, 5 and 10 kg betaine/T, artificial seawater, 30° C., up to 90 minutes), the “leach profile of pellets (comparison in words)” value was “fastest and most extensive leaching”. Besides, the “available betaine dissolved after 90 minutes” value in series [1] (shrimp feed pellets prepared with c. 2 kg betaine/T, artificial seawater pH 8,2, 30° C., 90 minutes, FIG. 1) was at most 60%. Also, the “solubility (in words)” value in series [2] is “readily soluble in water and lower alcohols”.
